The values below come from US10555987B2, “GHRH agonists for the treatment of ischemic disorders” (UNIVERSITY OF MIAMI, priority 2012, dated 2020).

Test [1] has as its system myocardial infarction (Fisher-344 rats). As to the kind of experiment: Hemodynamic analysis (pressure-volume loops), body and heart weight after MI, compared to JI-38 (Example 15, Table 16). Details: key to ESP (End-Systolic Pressure) / EDP (End-Diastolic Pressure) / ESV (End-Systolic Volume) / PRSW (Preload Recruitable Stroke Work) / Ees (End-systolic Elastance) / dP/dt max (peak rate of the pressure rise) / dP/dt max_EDV / dP/dt min / TAU (relaxation time constant calculated by Weiss method) / SV (Stroke Volume) / CO (Cardiac Output) / SW (Stroke Work) / EF / Ea/Ees / Ea (arterial Elastance): ↓: downward arrow denotes lower than JI-38; ↑: upward arrow denotes greater than JI-38; =denotes same as JI-38; ⬇⬇: double arrow denotes greater effect; ⬆⬆: double arrow denotes greater effect. As to conditions: rat MI model, s.c. twice daily; pressure-volume loops; expressed in comparison to JI-38. Type of test: in vivo, rat. Here is the method: Rats were anesthetized by intramuscular injection of a mixture of ketamine (100 mg/kg), xylazine (20 mg/kg) and acepromazine (10 mg/kg). A 2-F micromanometer tipped catheter (SPR-838, Millar Instruments, Houston, Tex.) was inserted into the right carotid artery and advanced retrograde into the left ventricle. Measurements were calibrated by injecting a hypertonic saline (15%) bolus to determine extra-ventricular conductance; relative volume units were converted to actual volume using the cuvette calibration method. All analyses were performed using PVAN 3.0 software (Millar Instruments, Houston, Tex.).
(§1) Myocardial infarction (MI) was induced by permanent ligation of the left coronary artery in female 6-month-old Fisher-344 rats. Following experimental myocardial infarction (MI), rats were randomly assigned to receive either placebo, JI-38, or one of the following new analogs of GHRH: MR-30 l(P-21301), MR-303(P-21303), MR-356(P-20356), MR-502(25502), MR-350(P-20350), MR-36 l(P-20361), MR-367(P-20367), MR-403(P-27403), MR-404(P-27404), and MR-409(P-27409) (10 rats per each group). The GHRH peptide agonists were adminsistered starting 2 hours post-surgery, 1 week, 2 week, and 4 week intervals. All treatment was given subcutaneously twice daily. Cardiac performance was assessed by serial echocardiography and hemodynamic analysis derived from pressure-volume loops as described before.
The hemodynamic studies are shown in FIGS. 16-33 and the results are summarized in Table 16 (results were expressed in comparison to JI-38; downward arrow denotes lower than JI-38; upward arrow denotes greater than JI-38; =denotes same as JI-38; and double arrow denotes greater effect).

Test [2] concerns GH release. As to the kind of experiment: In vivo endocrine activity, GH release after subcutaneous administration (Table 9). As to conditions: rat, subcutaneous (s.c.) injection. Here is the method:
Subcutaneous Administration. Adult male rats were used and anesthetized with pentobarbital (6 mg/100 g, b.w.), by i.p. injection. […] Blood samples were taken from the jugular vein 5, 15 and/or 30 minutes after the injection. The blood samples were centrifuged, plasma was removed and the GH level was measured byELISA. The results are summarized in terms of potency in Table 9.

The target of test [3] is T1, GHRH receptor (Homo sapiens, UniProt Q02643).
T1 sequence (Q02643 23-423): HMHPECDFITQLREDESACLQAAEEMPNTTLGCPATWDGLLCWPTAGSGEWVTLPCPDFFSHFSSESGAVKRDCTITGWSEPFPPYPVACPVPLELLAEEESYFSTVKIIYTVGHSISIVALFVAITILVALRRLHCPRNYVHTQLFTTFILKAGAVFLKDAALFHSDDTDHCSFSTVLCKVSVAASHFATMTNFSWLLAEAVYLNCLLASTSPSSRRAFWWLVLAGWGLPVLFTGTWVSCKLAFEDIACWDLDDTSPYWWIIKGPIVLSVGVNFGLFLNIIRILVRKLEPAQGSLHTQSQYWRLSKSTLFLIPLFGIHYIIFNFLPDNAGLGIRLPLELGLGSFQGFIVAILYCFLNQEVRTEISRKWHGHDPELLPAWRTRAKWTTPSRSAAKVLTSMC
Nature of the test: GHRH receptor binding, competition with 125I-labeled JV-1-42, human pituitary membrane homogenates (Table 7). More on the design: Normal human pituitaries were purchased from the National Hormone and Peptide Program; tissue National Hormone and Peptide Program (A.F. Parlow, Harbor-UCLA Medical Center, Torrance, Calif.); host or cells: normal human pituitary, membrane fraction. Particulars: JI-38 = 1, Table 7. From the text: Normal human pituitaries were purchased from the National Hormone and Peptide Program (A.F. Parlow, Los Angeles, County Harbor-UCLA Medical Center, Torrance, Calif.).

The subject of test [4] is GH release. Nature of the test: In vivo endocrine activity, GH release after intravenous administration (Table 8). Particulars: rat, i.v. injection. Here is the method: In vivo tests on endocrine activity of new GHRH agonists (Intravenous administration). For in vivo tests based on intravenous administration, adult male Sprague-Dawley rats were anesthetized with pentobarbital (6 mg/100/g, b.w.), and GHRH agonists were injected 20 minutes after the injection of pentobarbital. Blood samples were taken from the jugular vein (pretreated level), immediately after hGHRH(1-29)NH2 injection (as a control) or after hGHRH analogs injection. Blood samples were taken from the jugular vein 5, 15 and 30 minutes after the injection. The blood samples were centrifuged, plasma was removed and the GH level was measured by ELISA.

For test [5], the system named is myocardial infarction (Fisher-344 rats). Nature of the test: Serial echocardiography after MI, compared to JI-38 (Example 15, Table 15). Type of test: in vivo, rat. Details: key to LVEDD: Left Ventricular End Diastolic Diameter / LVESD: Left Ventricular End Systolic Diameter / VD: Ventricular Diastole / VS: Ventricular Systole / EF: Ejection Fraction / FS: Fraction Shortening: ↓: downward arrow denotes lower than JI-38; ↑: upward arrow denotes greater than JI-38; =denotes same as JI-38; ⬇⬇: double arrow denotes greater effect; ⬆⬆: double arrow denotes greater effect. Particulars: in comparison to JI-38. Here is the method:
Echocardiographic measurements were obtained at baseline, 2 days, 1, 2 and 4 weeks. Echocardiographic assessments were performed in anesthetized rats (2% isoflurane inhalation) using a Vevo-770 echocardiogram (Visual Sonics Inc., Toronto, Ontario, Canada) equipped with a 17.5-MHz transducer. Cardiac dimensions: LV end diastolic (LVEDD), end systolic (LVESD) diameters and fractional shortening (FS) were recorded from M-mode images using averaged measurements from 3 to 5 consecutive cardiac cycles according to the American Society of Echocardiography. Ejection fraction (EF) was calculated from bi-dimensional long-axis parasternal views taken through the infarcted area. All images were analyzed using Vevo 770 3.0.0 software (Visual Sonics Inc., Toronto, Ontario, Canada).
as §1
The echocardiographic experiments are shown in FIGS. 10-15 and the results are summarized in Table 15 (results were expressed in comparison to JI-38; downward arrow denotes lower than JI-38; upward arrow denotes greater than JI-38; =denotes same as JI-38; and double arrow denotes greater effect).

Non-standard residues stand in square brackets, D forms with d. Residues, ends and D or L forms follow the SMILES beside them. *: point of attachment. Desaminotyrosyl = O=C(CCc1ccc(O)cc1)*; NMeY = CN[C@@H](Cc1ccc(O)cc1)C(=O)O; Nle = CCCC[C@H](N)C(=O)O; Orn = NCCC[C@H](N)C(=O)O; Abu = CC[C@H](N)C(=O)O; Aoc = NCCCCCCCC(=O)O

In the case of `CCCC[C@H](NC(=O)[C@@H](NC(=O)[C@H](CC(=O)O)NC(=O)[C@H](CCC(N)=O)NC(=O)[C@H](CC(C)C)NC(=O)[C@H](CC(C)C)NC(=O)[C@H](CCCN)NC(=O)[C@H](CCCNC(=N)N)NC(=O)[C@H](C)NC(=O)[C@H](CO)NC(=O)[C@H](CC(C)C)NC(=O)[C@H](CCC(N)=O)NC(=O)[C@H](CC)NC(=O)[C@H](CC(C)C)NC(=O)[C@@H](NC(=O)[C@H](CCCN)NC(=O)[C@H](CCCNC(=N)N)NC(=O)[C@H](Cc1ccc(O)cc1)NC(=O)[C@H](CO)NC(=O)[C@H](CC(N)=O)NC(=O)[C@@H](NC(=O)[C@H](Cc1ccccc1)NC(=O)[C@@H](NC(=O)[C@H](C)NC(=O)[C@H](CC(=O)O)NC(=O)[C@@H](C)NC(=O)[C@H](Cc1ccc(O)cc1)NC)[C@@H](C)CC)[C@@H](C)O)C(C)C)[C@@H](C)CC)C(=O)N[C@@H](CC(=O)O)C(=O)N[C@@H](CCCNC(=N)N)C(=O)NCCCCCCCC(N)=O` [Peptide P-21303, [N—Me-Tyr^1, D-Ala^2, Orn^12, Abu^15, Orn^21, Nle^27, Asp^28, Amc^30]hGHRH(1-30)NH2] (H-[NMeY][dA]DAIFTNSYR[Orn]VL[Abu]QLSAR[Orn]LLQDI[Nle]DR[Aoc]-NH2), in test [1], the “CO (Cardiac Output)” value was “=”, the “EDP (End-Diastolic Pressure)” value was “↑”, the EF result was “↑” and the “ESP (End-Systolic Pressure)” value was “↓”. Besides, in test [1], the “ESV (End-Systolic Volume)” value is “=”, the “Ea (arterial Elastance)” value is recorded as “=”, the Ea/Ees entry is recorded as “=” and the “Ees (End-systolic Elastance)” value is given as “↓”. In addition, in test [1], the “PRSW (Preload Recruitable Stroke Work)” value is listed as “↓”, the “SV (Stroke Volume)” value is “=”, the “SW (Stroke Work)” value is “=” and the “TAU (relaxation time constant calculated by Weiss method)” value is “=”. Further, in test [1], the “dP/dt max (peak rate of the pressure rise)” value is given as “↓”, the “dP/dt max_EDV” value is given as “↓” and the dP/dt min entry is reported as “=”. The “GH releasing potency relative to JI-38 (=1)” value in test [2] (15 min after) is reported as 0.95. The “GH releasing potency relative to JI-38 (=1)” value in test [2] (30 min after) came out at 1.45. Further, in test [3], the “Relative affinity (Binding potency) vs JI-38” value is on record as 2.32. Moreover, the “GH releasing potency in vivo relative to JI-38 (=1)” value in test [4] (5 min after) came to 0.79. Also, the “GH releasing potency in vivo relative to JI-38 (=1)” value in test [4] (15 min after) was found to be 1.14. The “GH releasing potency in vivo relative to JI-38 (=1)” value in test [4] (30 min after) was found to be 0.81. In test [5], the “EF: Ejection Fraction” value is “↓”, the “FS: Fraction Shortening” value is on record as “=”, the “LVEDD: Left Ventricular End Diastolic Diameter” value was “=” and the “LVESD: Left Ventricular End Systolic Diameter” value is “=”. Besides, in test [5], the “VD: Ventricular Diastole” value is recorded as “↑” and the “VS: Ventricular Systole” value was “↑”.

For the compound `CCCC[C@H](NC(=O)[C@@H](NC(=O)[C@H](CC(=O)O)NC(=O)[C@H](CCC(N)=O)NC(=O)[C@H](CC(C)C)NC(=O)[C@H](CC(C)C)NC(=O)[C@H](CCCN)NC(=O)[C@H](CCCNC(=N)N)NC(=O)[C@H](C)NC(=O)[C@H](CO)NC(=O)[C@H](CC(C)C)NC(=O)[C@H](CCC(N)=O)NC(=O)[C@H](CC)NC(=O)[C@H](CC(C)C)NC(=O)[C@@H](NC(=O)[C@H](CCCN)NC(=O)[C@H](CCCNC(=N)N)NC(=O)[C@H](Cc1ccc(O)cc1)NC(=O)[C@H](CO)NC(=O)[C@H](CC(N)=O)NC(=O)[C@@H](NC(=O)[C@H](Cc1ccccc1)NC(=O)[C@@H](NC(=O)[C@H](C)NC(=O)[C@H](CC(=O)O)NC(=O)[C@@H](C)NC(=O)CCc1ccc(O)cc1)[C@@H](C)CC)[C@@H](C)O)C(C)C)[C@@H](C)CC)C(=O)N[C@@H](CC(=O)O)C(=O)N[C@@H](CCCNC(=N)N)C(=O)NCCCCCCCC(N)=O` [Peptide P-21300, [Dat^1, D-Ala^2, Orn^12, Abu^15, Orn^21, Nle^27, Asp^28, Amc^30]hGHRH(1-30)NH2] (Desaminotyrosyl-[dA]DAIFTNSYR[Orn]VL[Abu]QLSAR[Orn]LLQDI[Nle]DR[Aoc]-NH2), the “Relative affinity (Binding potency) vs JI-38” value in test [3] was 1.20. The “GH releasing potency in vivo relative to JI-38 (=1)” value in test [4] (5 min after) is listed as 0.39; in test [4] (15 min after) it was 0.51; in test [4] (30 min after), 0.81.
